Numbered stars: 1 amine (or outer) side, 2 acyl side, 3 side chain; on linkers, the order of the positions; unused ones are H or OH. Square brackets hold non-standard residues; d marks the D form. Side chains are listed from the residue outwards. Peptide text beside a SMILES is read from it. * marks the point of attachment. C20 diacid = O=C(O)CCCCCCCCCCCCCCCCCCC(=O)*; γGlu = O=C(O)[C@H](CCC(=O)[*:2])N[*:1]; αMeL = CC(C)C[C@](C)(N)C(=O)O; AEEA = NCCOCCOCC(=O)O; Aib = CC(C)(N)C(=O)O
How the values were obtained:
[1] = molecular target: human GLP-1 receptor (GLP-1R) (Homo sapiens, UniProt P43220); assay: cAMP pharmacological functional assay in presence of casein, hGLP-1R; assay type: cell-based; conditions: HEK293 cells expressing hGLP-1R, 0.1% Casein, geometric mean; read-out: hGLP1R cAMP Rel EC50 nM (SEM, n)
[2] = molecular target: human GLP-1R (Homo sapiens, UniProt P43220); assay: [125I]-GLP-1 binding (SPA), human GLP-1 receptor; design: expressed in transfected cells; crude membranes; conditions: read-out: hGLP1R Ki, (nM) (SEM, n)
How it was run: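 Ki values are geometric means with SEM over independent replicates on different days, derived from IC50s fitted by four-parameter nonlinear regression. The assay used crude cell membranes in HEPES buffer, pH 7.4, containing CaCl2, MgCl2, bacitracin and TWEEN-20.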

[3] = molecular target: T1, human Gcg receptor (Homo sapiens, UniProt P47871); assay: [125I]-Glucagon binding (SPA), human Gcg receptor; conditions: read-out: hGLcgR Ki, nM (SEM, n)
T1 construct: expressed in transfected cells; crude membranes
How it was run: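 Scintillation counts are taken after membranes and WGA beads incubate and settle for 12 hours at room temperature. Buffer is 25 mM HEPES, pH 7.4, with CaCl2, MgCl2, bacitracin and Tween-20. Ki values, from four-parameter IC50 fits, are geometric means over independent days.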

[4] = molecular target: T2, human GIP receptor (Homo sapiens, UniProt P48546); assay: [125I]-GIP binding (SPA), human GIP receptor; conditions: read-out: hGIPR Ki, nM (SEM, n)
T2 construct: expressed in transfected cells; crude membranes
T2 sequence (P48546 22-466): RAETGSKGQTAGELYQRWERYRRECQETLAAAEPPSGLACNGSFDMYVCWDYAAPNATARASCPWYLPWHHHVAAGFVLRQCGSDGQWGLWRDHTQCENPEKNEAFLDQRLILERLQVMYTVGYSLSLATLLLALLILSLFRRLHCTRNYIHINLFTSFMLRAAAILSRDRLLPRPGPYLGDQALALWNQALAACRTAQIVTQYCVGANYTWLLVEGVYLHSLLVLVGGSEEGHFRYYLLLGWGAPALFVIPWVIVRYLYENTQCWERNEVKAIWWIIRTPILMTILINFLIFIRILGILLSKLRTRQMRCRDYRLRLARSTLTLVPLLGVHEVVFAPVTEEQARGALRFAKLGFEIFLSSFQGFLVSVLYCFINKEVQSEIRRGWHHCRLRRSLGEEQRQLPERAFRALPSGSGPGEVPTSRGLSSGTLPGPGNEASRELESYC

[5] = molecular target: T3, gastric inhibitory peptide receptor (GIPR) (Homo sapiens, UniProt P48546); assay: cAMP pharmacological functional assay in presence of casein, hGIPR; assay type: cell-based; conditions: HEK293 cells expressing hGIPR, 0.1% Casein, geometric mean; read-out: hGIPR cAMP Rel EC50 nM (SEM, n)
T3 sequence (P48546 22-466): T2 sequence (P48546 22-466)

T1 sequence (P47871 26-477): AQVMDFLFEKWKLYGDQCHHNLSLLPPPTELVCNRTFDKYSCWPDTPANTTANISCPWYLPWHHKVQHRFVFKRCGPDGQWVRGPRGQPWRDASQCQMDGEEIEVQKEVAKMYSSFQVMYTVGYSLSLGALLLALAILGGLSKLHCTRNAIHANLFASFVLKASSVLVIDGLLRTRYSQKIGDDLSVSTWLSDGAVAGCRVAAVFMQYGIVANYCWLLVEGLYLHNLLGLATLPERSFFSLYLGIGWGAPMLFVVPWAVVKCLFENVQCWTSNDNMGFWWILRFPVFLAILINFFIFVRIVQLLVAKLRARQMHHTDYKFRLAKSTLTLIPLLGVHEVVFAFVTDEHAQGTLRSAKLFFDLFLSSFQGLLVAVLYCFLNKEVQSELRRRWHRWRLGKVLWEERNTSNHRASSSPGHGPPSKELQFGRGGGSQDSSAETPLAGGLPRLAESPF
Sequence of human GLP-1 receptor (GLP-1R) (P43220 24-463): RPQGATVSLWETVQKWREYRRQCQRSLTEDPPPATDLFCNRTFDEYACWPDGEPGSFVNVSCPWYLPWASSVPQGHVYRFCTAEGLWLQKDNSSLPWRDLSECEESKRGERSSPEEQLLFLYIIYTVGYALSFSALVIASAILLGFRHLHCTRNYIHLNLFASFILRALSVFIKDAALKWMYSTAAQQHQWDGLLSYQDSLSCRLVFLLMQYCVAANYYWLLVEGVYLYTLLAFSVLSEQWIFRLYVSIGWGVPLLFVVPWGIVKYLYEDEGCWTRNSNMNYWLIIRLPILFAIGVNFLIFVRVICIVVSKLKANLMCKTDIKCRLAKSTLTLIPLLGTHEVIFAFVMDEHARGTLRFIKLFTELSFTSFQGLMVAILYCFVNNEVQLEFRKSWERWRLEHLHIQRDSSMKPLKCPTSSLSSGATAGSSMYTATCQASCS
Sequence of human GLP-1R (P43220 24-463): as above

SMILES | EC50 [1] [nM] | Ki [2] [nM] | Ki [3] [nM] | Ki [4] [nM] | EC50 [5] [nM]
CC[C@H](C)[C@H](NC(=O)[C@H](CC(C)C)NC(=O)[C@H](Cc1ccc(O)cc1)NC(=O)[C@H](CCC(=O)O)NC(=O)[C@@H](NC(=O)[C@H](Cc1ccccc1)NC(=O)[C@H](C)NC(=O)C(C)(C)NC(=O)[C@H](CCC(N)=O)NC(=O)[C@H](C)NC(=O)[C@H](CCCCNC(=O)COCCOCCNC(=O)COCCOCCNC(=O)CC[C@H](NC(=O)CCCCCCCCCCCCCCCCCCC(=O)O)C(=O)O)NC(=O)[C@@H](NC(=O)[C@H](CC(=O)O)NC(=O)[C@H](CC(C)C)NC(=O)[C@](C)(CC(C)C)NC(=O)[C@@H](NC(=O)[C@H](CO)NC(=O)[C@H](Cc1ccc(O)cc1)NC(=O)[C@H](CC(=O)O)NC(=O)[C@H](CO)NC(=O)[C@@H](NC(=O)[C@H](Cc1ccccc1)NC(=O)[C@@H](NC(=O)CNC(=O)[C@H](CCC(=O)O)NC(=O)C(C)(C)NC(=O)[C@@H](N)Cc1ccc(O)cc1)[C@@H](C)O)[C@@H](C)O)[C@@H](C)CC)[C@@H](C)O)[C@@H](C)CC)C(=O)N[C@@H](CCC(=O)O)C(=O)NCC(=O)NCC(N)=O [Example 65] (H-Y[Aib]EGTFTSDYSI[αMeL]LDTK([AEEA-AEEA-γGlu-C20 diacid])AQ[Aib]AFIEYLIEGG-NH2; N-terminus assumed) | 0.289 | 4.53 | 194 | 0.0643 | 0.143
CC[C@H](C)[C@H](NC(=O)[C@H](Cc1ccccc1)NC(=O)[C@H](C)NC(=O)C(C)(C)NC(=O)[C@H](CCC(N)=O)NC(=O)[C@H](C)NC(=O)[C@H](CCCCNC(=O)COCCOCCNC(=O)COCCOCCNC(=O)CC[C@H](NC(=O)CCCCCCCCCCCCCCCCCCC(=O)O)C(=O)O)NC(=O)[C@H](CCC(=O)O)NC(=O)[C@H](CC(=O)O)NC(=O)[C@H](CC(C)C)NC(=O)[C@](C)(CC(C)C)NC(=O)[C@@H](NC(=O)[C@H](CO)NC(=O)[C@H](Cc1ccc(O)cc1)NC(=O)[C@H](CC(=O)O)NC(=O)[C@H](CO)NC(=O)[C@@H](NC(=O)[C@H](Cc1ccccc1)NC(=O)[C@@H](NC(=O)CNC(=O)[C@H](CCC(=O)O)NC(=O)C(C)(C)NC(=O)[C@@H](N)Cc1ccc(O)cc1)[C@@H](C)O)[C@@H](C)O)[C@@H](C)CC)C(=O)N[C@@H](CCC(=O)O)C(=O)N[C@@H](Cc1ccc(O)cc1)C(=O)N[C@@H](CC(C)C)C(=O)N[C@@H](CC(C)C)C(=O)N[C@@H](CCC(=O)O)C(=O)NCC(=O)NCC(=O)N1CCC[C@H]1C(=O)N[C@@H](CO)C(=O)N[C@@H](CO)C(=O)NCC(=O)N[C@@H](C)C(=O)N1CCC[C@H]1C(=O)N1CCC[C@H]1C(=O)N1CCC[C@H]1C(=O)N[C@@H](CO)C(N)=O [Example 66] (H-Y[Aib]EGTFTSDYSI[αMeL]LDEK([AEEA-AEEA-γGlu-C20 diacid])AQ[Aib]AFIEYLLEGGPSSGAPPPS-NH2) | 0.285 | 7.53 | 93.7 | 0.106 | 0.0743
CC[C@H](C)[C@H](NC(=O)[C@H](CC(C)C)NC(=O)[C@H](Cc1ccc(O)cc1)NC(=O)[C@H](CCC(=O)O)NC(=O)[C@@H](NC(=O)[C@](C)(Cc1ccccc1)NC(=O)[C@H](C)NC(=O)C(C)(C)NC(=O)[C@H](CCC(N)=O)NC(=O)[C@H](C)NC(=O)[C@H](CCCCNC(=O)COCCOCCNC(=O)COCCOCCNC(=O)CC[C@H](NC(=O)CCCCCCCCCCCCCCCCCCC(=O)O)C(=O)O)NC(=O)[C@H](CCCCN)NC(=O)[C@H](CC(=O)O)NC(=O)[C@H](CC(C)C)NC(=O)[C@H](CC(C)C)NC(=O)[C@@H](NC(=O)[C@H](CO)NC(=O)[C@H](Cc1ccc(O)cc1)NC(=O)[C@H](CC(=O)O)NC(=O)[C@H](CO)NC(=O)[C@@H](NC(=O)[C@H](Cc1ccccc1)NC(=O)[C@@H](NC(=O)CNC(=O)[C@H](CCC(=O)O)NC(=O)C(C)(C)NC(=O)[C@@H](N)Cc1ccc(O)cc1)[C@@H](C)O)[C@@H](C)O)[C@@H](C)CC)[C@@H](C)CC)C(=O)N[C@@H](CCC(=O)O)C(=O)NCC(=O)NCC(=O)N1CCC[C@H]1C(=O)N[C@@H](CO)C(=O)N[C@@H](CO)C(=O)NCC(=O)N[C@@H](C)C(=O)N1CCC[C@H]1C(=O)N1CCC[C@H]1C(=O)N1CCC[C@H]1C(=O)N[C@@H](CO)C(N)=O [Example 67] | 0.447 | 10.2 | 270 | 0.061 | 0.0913
CC[C@H](C)[C@H](NC(=O)[C@H](CC(C)C)NC(=O)[C@H](Cc1ccc(O)cc1)NC(=O)[C@H](CCC(=O)O)NC(=O)[C@@H](NC(=O)[C@H](Cc1ccccc1)NC(=O)[C@H](C)NC(=O)C(C)(C)NC(=O)[C@H](CCC(N)=O)NC(=O)[C@H](C)NC(=O)[C@H](CCCCNC(=O)COCCOCCNC(=O)COCCOCCNC(=O)CC[C@H](NC(=O)CCCCCCCCCCCCCCCCCCC(=O)O)C(=O)O)NC(=O)[C@H](CCCCN)NC(=O)[C@H](CC(=O)O)NC(=O)[C@H](CC(C)C)NC(=O)[C@H](CC(C)C)NC(=O)[C@@H](NC(=O)[C@](C)(CO)NC(=O)[C@H](Cc1ccc(O)cc1)NC(=O)[C@H](CC(=O)O)NC(=O)[C@H](CO)NC(=O)[C@@H](NC(=O)[C@H](Cc1ccccc1)NC(=O)[C@@H](NC(=O)CNC(=O)[C@H](CCC(=O)O)NC(=O)C(C)(C)NC(=O)[C@@H](N)Cc1ccc(O)cc1)[C@@H](C)O)[C@@H](C)O)[C@@H](C)CC)[C@@H](C)CC)C(=O)N[C@@H](CCC(=O)O)C(=O)NCC(=O)NCC(=O)N1CCC[C@H]1C(=O)N[C@@H](CO)C(=O)N[C@@H](CO)C(=O)NCC(=O)N[C@@H](C)C(=O)N1CCC[C@H]1C(=O)N1CCC[C@H]1C(=O)N1CCC[C@H]1C(=O)N[C@@H](CO)C(N)=O [Example 68] | 0.153 | 1.58 | 99.2 | 0.0243 | 0.0881
CC[C@H](C)[C@H](NC(=O)[C@H](CC(C)C)NC(=O)[C@H](Cc1ccc(O)cc1)NC(=O)[C@H](CCC(=O)O)NC(=O)[C@@H](NC(=O)[C@](C)(Cc1ccccc1)NC(=O)[C@H](C)NC(=O)C(C)(C)NC(=O)[C@H](CCC(N)=O)NC(=O)[C@H](C)NC(=O)[C@H](CCCCNC(=O)COCCOCCNC(=O)COCCOCCNC(=O)CC[C@H](NC(=O)CCCCCCCCCCCCCCCCCCC(=O)O)C(=O)O)NC(=O)[C@H](CCCCN)NC(=O)[C@H](CC(=O)O)NC(=O)[C@H](CC(C)C)NC(=O)[C@](C)(CC(C)C)NC(=O)[C@@H](NC(=O)[C@H](CO)NC(=O)[C@H](Cc1ccc(O)cc1)NC(=O)[C@H](CC(=O)O)NC(=O)[C@H](CO)NC(=O)[C@@H](NC(=O)[C@H](Cc1ccccc1)NC(=O)[C@@H](NC(=O)CNC(=O)[C@H](CCC(=O)O)NC(=O)C(C)(C)NC(=O)[C@@H](N)Cc1ccc(O)cc1)[C@@H](C)O)[C@@H](C)O)[C@@H](C)CC)[C@@H](C)CC)C(=O)N[C@@H](CCC(=O)O)C(=O)NCC(=O)NCC(=O)N1CCC[C@H]1C(=O)N[C@@H](CO)C(=O)N[C@@H](CO)C(=O)NCC(=O)N[C@@H](C)C(=O)N1CCC[C@H]1C(=O)N1CCC[C@H]1C(=O)N1CCC[C@H]1C(=O)N[C@@H](CO)C(N)=O [Example 74] | 0.467 | 5.99 | 69.8 | 0.0279 | 0.0866

Reference: patent US12252524B2, “GIP/GLP1 co-agonist compounds” (Eli Lilly and Company, priority 2018, dated 2025)
